Data taken from patent publication US20190142718A1, “NOVEL USE” (DSM IP ASSETS B.V., priority 2017, published 2019).

What was measured:
Assay in all cases: Antimicrobial efficacy, challenge test in analogy to NF EN ISO11930
[1] = test system: M. furfur; format: cell-based, Malassezia furfur
Description: (§1) The antimicrobial efficacy is assessed in analogy to the regulatory challenge test method (NF EN IS011930). Thus, a solution of 0.2 wt.-% of phytantriol in a physiological serum with 0.85 wt.-% NaCl supplemented with 10 wt.-% ethanol was prepared. A control was also prepared under sterile conditions based on a serum with 0.85 wt.-% NaCl and 10 wt.-% ethanol.
(§2) The control as well as the phytantriol solution were deposed in 96-deep well plates (1.6 ml/well). The wells were contaminated with the respective bacterial or the fungal strains as outlined in table 1 at 2.5*10^5 to 5.6*10^5 cfu/ml for the bacteria and 1*10^4 to 2.5*10^4 cfu/ml for the fungi to obtain the initial contamination as outlined in table 1. After the contamination, each well was thoroughly mixed to ensure a homogeneous distribution of the microorganism. Then each plate was incubated at 22° C. for 24h. The counting of the (remaining) population was carried out 24h after contamination.

[2] = test system: S. aureus; format: cell-based, Staphylococcus aureus
Description: as §1, §2

[3] = test system: S. epidermidis; format: cell-based, Staphylococcus epidermidis
Description: as §1, §2

[4] = test system: P. Acnes; format: cell-based, Propionibacterium acnes
Description: as §1, §2

[5] = test system: A. brasiliensis; format: cell-based, Aspergillus brasiliensis
Description: as §1, §2

[6] = test system: C. albicans; format: cell-based, Candida albicans
Description: as §1, §2

Structure (SMILES): CC(C)CCCC(C)CCCC(C)CCCC(C)(O)C(O)CO (stereo not drawn) [Phytantriol, 3,7,11,15-tetramethyl-hexadecane-1,2,3-triol]
- colony counts 24 h ([1]; 0.2 wt.-% phytantriol in 0.85 wt.-% NaCl serum with 10 wt.-% ethanol, 22° C., 24 h after contamination, 0 h count 4000, control 24 h 775): 0 cfu/ml
- antimicrobial effect ([1]; against Malassezia furfur, 0.2 wt.-%, 24 h): significant antimicrobial effect
- colony counts 24 h ([2]; 0.2 wt.-% phytantriol in 0.85 wt.-% NaCl serum with 10 wt.-% ethanol, 22° C., 24 h after contamination, 0 h count 250000, control 24 h 280000): 0 cfu/ml
- antimicrobial effect ([2]; against Staphylococcus aureus, 0.2 wt.-%, 24 h): significant antimicrobial effect
- colony counts 24 h ([3]; 0.2 wt.-% phytantriol in 0.85 wt.-% NaCl serum with 10 wt.-% ethanol, 22° C., 24 h after contamination, 0 h count 560000, control 24 h 28000): 0 cfu/ml
- antimicrobial effect ([3]; against Staphylococcus epidermidis, 0.2 wt.-%, 24 h): significant antimicrobial effect
- colony counts 24 h ([4]; 0.2 wt.-% phytantriol in 0.85 wt.-% NaCl serum with 10 wt.-% ethanol, 22° C., 24 h after contamination, 0 h count 310000, control 24 h 30000): 28000 cfu/ml
- antimicrobial effect ([4]; against Propionibacterium acnes, 0.2 wt.-%, 24 h): significant antimicrobial effect
- colony counts 24 h ([5]; 0.2 wt.-% phytantriol in 0.85 wt.-% NaCl serum with 10 wt.-% ethanol, 22° C., 24 h after contamination, 0 h count 10000, control 24 h 1000): 10 cfu/ml
- antimicrobial effect ([5]; against Aspergillus brasiliensis, 0.2 wt.-%, 24 h): significant antimicrobial effect
- colony counts 24 h ([6]; 0.2 wt.-% phytantriol in 0.85 wt.-% NaCl serum with 10 wt.-% ethanol, 22° C., 24 h after contamination, 0 h count 25000, control 24 h 5000): 1000 cfu/ml
- antimicrobial effect ([6]; against Candida albicans, 0.2 wt.-%, 24 h): significant antimicrobial effect
